Reference: patent US8268293B2, “UV protection” (Merck Patent GmbH, priority 2005, dated 2012)

Tests used:
[1] = Oxidation in UV light: change in the UV spectrum on irradiation; assay type: physicochemical
Method: The curves stand for the unirradiated substance (exposed to 0 kJ/m^2), after irradiation for 15 min (exposure to 86 kJ/m^2), after irradiation for 65 min (exposure to 373 kJ/m^2), after irradiation for 235 min (exposure to 1349 kJ/m^2) and after irradiation for 405 min (exposure to 2325 kJ/m^2).

[2] = Oxidation in UV light in the presence of further antioxidants: UV/VIS spectrum of beta-carotene emulsions on irradiation

- UV absorption in the UV-A region on irradiation with UV light ([1]; after irradiation for 65 min (373 kJ/m^2), xenon lamp 95.69 W/m^2, 290-400 nm, increases further on longer irradiation): significantly increased UV absorption
- Emax of the UV-A absorption developed on irradiation ([1]; neat substance, after UV irradiation): 320-340 nm
- effect on beta-carotene degradation in the emulsion on UV irradiation ([2]; emulsion with 0.5% beta-carotene and 4% compound vs emulsion without compound, irradiated 90 min, beta-carotene absorption at 440-480 nm): stabilises the beta-carotene
- Emax of the absorption of the reaction product in the UV-A region ([2]; emulsion with 0.5% by weight beta-carotene and 4% by weight compound, irradiated 90 min (curve B)): 320-340 nm
Structure (SMILES): CCCCC(CC)COC(=O)C(Cc1cc(OC)c(O)c(OC)c1)C(=O)OCC(CC)CCCC (stereo not shown)
